In patent US20040102606A1, “Histone H2A -derived peptides useful in gene delivery” (priority 2003, published 2004):

Columns and labels:
[1] = system: COS7 cells; details: polymers in equimolar ratios to their representation in histone H2A; cited from earlier work
[2] = system: COS-7 cells; assay: Transfection assay (β-galactosidase reporter plasmid pCMVβ complexed with H2A-derived peptide); type: cell-based, African green monkey; details: for transfection activity (β-galactosidase production): peptide at equimolar ratio to peak conditions of peptide 1 (36-mer), also 2× and ½× molar, FIG. 1; for transfection activity (DNA delivery) at the 17-mer's own optimal concentration: much higher molar ratio than 36-mer
Description: The transfection assay is based on an in vitro assay previously described by J. H. Felgner et al. (Feigner et al., Proc. Natl. Acad. Sci., USA, 84:7413-7417, […]) with the following modifications: COS-7 (African green monkey SV40-transformed kidney cells, American Type Culture Collection, Rockville, Md.) were maintained in Dulbecco's modified eagle's medium (Biowhittaker, Walkersville, Md.) supplemented with 10% heat inactivated fetal bovine serum (Gemini Bio-products Inc., Calabras, Calif.), […] glutamine (Gemini Bio-products Inc., Calabras, Calif.), and 100U Penicillin-100 μg Streptomycin (Gemini Bio-products Inc., Calabras, Calif.). Other cells useful for transfection are 3T3, CHO-K1, HEPG2 and the like cell lines. The cells were harvested with 0.05% Trypsin-0.53 mM EDTA4Na (Life Technologies, Gaithersburg, Md.), pelleted, resuspended in their usual culture medium, diluted in 0.85% NaCl (Sigma, St. Louis, Mo.), and counted in a Coulter Z1® apparatus (Coulter Corporation, Miami, Fla.). COS-7 cells were plated in 96-well flat bottom tissue culture treated polystyrene plates (Corning Inc., Corning, N.Y.) at a density of […] cells per well and grown overnight in a humidified incubator at 37° C. in the presence of 4% CO2. Culture medium was aspirated from the overnight cultures of COS-7 cells, and the cells were overlaid with 75 μl/well of the binary DNA-histone H2A-derived peptide complex, or the corresponding controls. Four hours after transfection, 37.5 μl of Opti-MEM®1, a Tris-Acetate-based (Life Technologies, Gaithersburg, Md.) containing 30% heat inactivated fetal bovine serum (Gemini Bio-products Inc., Celebres, Calif.) was added to each well. Twenty-four hours post-transfection […] of Opti-MEM®1 containing 10% heat inactivated fetal bovine serum (Gemini Bio-products Inc., Celebres, Calif.) was added to each well Forty-eight hours post-transfection, all of the medium in each well was removed. Fifty μl of lysis buffer (0.1% Triton X-100, […] Tris pH 8.0) was added to each well. The plates were then frozen at −70° C. and thawed once. Fifty μl of phosphate-buffered saline (PBS) pH 7.4 was added to each well except for the last column The last column was reserved for a β-galactosidase standard curve. […] In the presence of β-galactosidase, D-galactose is released from CPRG, yielding chlorophenol red; the red reaction product was used to quantitate the amount of β-galactosidase produced. […] The plates were read in a Thermomax plate reader (Molecular Devices Incorporated, Sunnyvale, Calif.) at 575 nm. The optical density values obtained in test wells were then compared to those in the column containing the β-galactosidase standard and the result was expressed as the quantity of β-galactosidase produced per well. […]

[3] = system: COS-7 cells; assay: X-gal staining of transfected cells; type: cell-based, African green monkey
Description: The difference between one of the effective peptides (amino acids 1-36) and the peptide composed of the first 25 amino acids is the inclusion of an α-helical motif located between amino acids 27-35.

[4] = Circular dichroism; type: physicochemical; details: 70 μM in 120 mM Tris acetate pH 8; 200-260 nm
Description: Circular dichroism experiments were performed using a Circular Dichroism Spectrometer (model 62DS) at wavelengths ranging from 200-260 nm In all cases, three readings were taken of a 300 μl sample of 70 μM histone H2A or 70 μM histone H2A-derived peptide in 120 mM Tris acetate pH 8. The average reading for every wavelength tested is plotted as a function of degrees of ellipticity.
Circular dichroism of peptide was performed on four samples: the full length histone H2A molecule, peptide 1 (36-mer), peptide P1 (17-mer) and peptide 12.

| Compound | transfection (β-galactosidase reporter plasmid) [1] | transfection activity (β-galactosidase production) [2] | other results |
| --- | --- | --- | --- |
| NCCCNCCCCNCCCN [spermine] | ineffective | – | – |
| NCCCCNCCCN [spermidine] | ineffective | – | – |
| KTRSSRAGLQFPVGRVHRIIRK [Peptide 5R] | – | significant activity | – |
| P1: 17-mer that represents amino acids 18-34 of the histone H2A molecule (RSSRAGLQFPVGRVHRL; UniProt P0C0S8 18-34, looked up, fragment) [Peptide P1] | – | only background activity | COS-7 cells transfected (X-gal staining) [3]: less than 1%; transfection activity (DNA delivery) at the 17-mer's own optimal concentration ([2]; FIG. 2): effective in DNA transfection and delivery; transfection activity (DNA delivery) at the 17-mer's own optimal concentration ([2]; FIG. 2, listed as 17-mer): active in DNA delivery; circular dichroism, α-helical structure (minima at 208 and 222 nm) [4]: some degree of minima at around 208 |
